Laboratory results published in patent US7345065B2, “Methods and compositions for alleviating pain” (Allergan, Inc., priority 2002, dated 2008).

Columns and labels:
[1] = tested on: sulprostone-sensitized wild type mice; assay: Sulprostone sensitized pain (allodynia), wild type mice; format: in vivo, mouse; details: intraperitoneal, wild type mice; clonidine 500 ug/kg, Compound 3 100 ug/kg
Experimental: Non-specific α-adrenergic agonists were assayed in α-2A receptor deficient (“knockout”) mice (Hein et al., supra, 1999) using a mouse model of sulprostone sensitized pain in which allodynia is evoked by intrathecal administration of a selective prostaglandin E2 receptor agonist to conscious mice essentially as described in Minami et al., Pain 57:217-223 (1994). In this model, the pain response to stroking the flank with a paint brush is scored eight times over a 35 minute period starting 15 minutes following spinal administration of sulprostone and intrathecal or intraperitoneal administration of drug or control vehicle. Sulprostone elicits a “pain” score of 12-13 on a 16-point scale.
Assays for allodynia in wild type and α-2A knockout mice were performed essentially according to the method of Yaksh and Harty, J. Pharmacology Exp. Ther. 244: 501-507 (1998). In brief, mice were divided into groups of 5-6 animals. Control mice were administered 5 ul DMSO while treated animals were injected with 5 ul DMSO containing various doses of the indicated agent. After intrathecal injection, each mouse was placed in an individual 13×8.5×13 cm Plexiglass enclosure with wood chips on the floor for observation. Allodynia was assessed once every five minutes over a 50 minute time period, with response recorded eight times in the 15 to 50 minute time frame. Allodynia was assessed by light stroking of the flank of the mice with a small paintbrush and ranked as follows: 0, no response; 1, mild squeaking with attempts to move away from the stroking probe; and 2, vigorous squeaking evoked by the stroking probe, biting at the probe and strong efforts to escape. The eight scores for each animal were added together, and the mean for the group determined to give an average total score.

[2] = tested on: mice; assay: Sedative effects in mice (exploratory activity, digicom analyzer chamber); format: in vivo, mouse; details: intraperitoneal, wild type mice; clonidine 500 ug/kg, Compound 3 100 ug/kg
Experimental: (§1) Sedative effects were analyzed by assessing exploratory behavior in a darkened chamber as follows. Mice were weighed, and test compound administered by intrathecal injection in a volume of 5 μl or by intraperitoneal injection in 1 ml/kg volume at the indicated dose. At predetermined time points corresponding with analgesia measurements 5 to 30 minutes following the injection, the animal's activity was determined automatically by placing the mouse in a digicom analyzer chamber (Omnitech Electronic; Columbus, Ohio). The digicom analyzer chamber contains photocell beams criss-crossing the box that are broken as the animal moves around; the chamber was modified for mice by raising the level of the floor. Computer analysis of total animal movement proceeded over a 5-minute time period. Any given animal was used at most twice for this protocol, as learned behavior can affect the data. All animals received at least two weeks rest between studies.

[3] = tested on: Male Sprague-Dawley rats; assay: Sedative effects in rats (total activity, digicom analyzer chamber); format: in vivo, rat; details: single intraperitoneal dose 1 to 1000 μg/kg
Experimental: as §1
Male Sprague-Dawley rats that were not subject to surgery were used for assessment of sedative effects. Rats were weighed and compound administered by intravenous or intraperitoneal injection or given orally at the indicated dose. At a predetermined time point 5 to 30 minutes following injection, the animal's activity was determined automatically by placing the rat in a digicom analyzer chamber (Omnitech Electronic). Total activity was analyzed as described above.

O=C1c2ccccc2CCC1Cc1c[nH]c(=S)[nH]1 (racemic) [Compound 3]
sulprostone-induced tactile allodynia [1]: alleviated sulprostone-induced tactile allodynia
concomitant sedation [2]: without concomitant sedation
non-sedating dose relative to doses producing a robust reversal of allodynia [3]: > 100 fold
